Measurements reported in ChEMBL document CHEMBL1130920, “The structure-activity relationships of a series of suicide inhibitors of phospholipase A2” (Bioorg Med Chem Lett, 1998).

Test: Compound was tested for the inhibitory activity against cobra venom PLA2 (Naja naja atra) by using the Dole assay

Row | SMILES | Activity (nM min-1 mg-1)
1 | O=S(=O)(c1ccc(O)cc1)C(F)(F)F | 11.9
2 | CS(=O)(=O)c1ccc(O)cc1 | 11.1
3 | [O-][S+](c1ccc(O)cc1)C(F)(F)F (centres undefined) | 2
4 | O=[N+]([O-])c1ccc(O)cc1 | 2.5
